± gives the standard deviation of the averaged measurements.
How the values were obtained:
Test in all cases: level (log10 ratio to DMSO vehicle control); higher = higher biomarker level / cell amount than vehicle control
[1] = compound: OCCC(F)(F)C(F)(F)C(F)(F)C(F)(F)F [4:2 Fluorotelomer alcohol] (in DMSO)
Method: (§1)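 BioMAP Diversity Plus panel of 12 human primary cell co-culture systems (3C, 4H, LPS, SAg, BT, BF4T, BE3C, CASM3C, HDF3CGF, KF3CT, MyoF, Mphg). Compounds were added 1 h before stimulation and left for 24 h (MyoF 48 h; BT 72 h for soluble read-outs or 6 d for IgG). Biomarkers were read by ELISA, cytotoxicity by SRB, PBMC viability and proliferation by Alamar Blue. Each well value was divided by the mean of 8 DMSO control wells on the same plate and log10 transformed; duplicate blinded samples were tested at 4 concentrations.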

[2] = compound: O=C(O)C(F)(OC(F)(F)C(F)(OC(F)(F)C(F)(OC(F)(F)C(F)(F)C(F)(F)F)C(F)(F)F)C(F)(F)F)C(F)(F)F [Perfluoro-(2,5,8-trimethyl-3,6,9-trioxadodecanoic)acid] (in DMSO)
Method: as §1

[3] = compound: O=C(O)C(F)(F)C(F)(F)C(F)(F)C(F)(F)C(F)(F)C(F)(F)C(F)(F)C(F)(F)F [Perfluorononanoic acid] (in DMSO)
Method: as §1

[4] = compound: O=S(=O)(O)CCC(F)(F)C(F)(F)C(F)(F)C(F)(F)C(F)(F)C(F)(F)C(F)(F)C(F)(F)F [8:2 Fluorotelomer sulfonic acid] (in DMSO)
Method: as §1

[5] = compound: O=S(=O)(O)C(F)(F)C(F)(F)C(F)(F)C(F)(F)C(F)(F)C(F)(F)C(F)(F)F [Perfluoroheptanesulfonic acid] (in DMSO)
Method: as §1

[6] = compound: O=C(O)C(F)(F)C(F)(F)C(F)(F)C(F)(F)C(F)(F)C(F)(F)C(F)(F)C(F)(F)C(F)(F)C(F)(F)F [Perfluoroundecanoic acid] (in DMSO); details: 6700 nM
Method: as §1

[7] = compound: C=C(C)C(=O)OCCC(F)(F)C(F)(F)C(F)(F)C(F)(F)C(F)(F)C(F)(F)C(F)(F)C(F)(F)F [8:2 Fluorotelomer methacrylate] (in DMSO)
Method: as §1

Test System	level (log10) ([1]; 6700 nM)	level (log10) ([1]; 20000 nM)	level (log10) ([1]; 60000 nM)	level (log10) ([2]; 1100 nM)	level (log10) ([2]; 3300 nM)	level (log10) ([2]; 10000 nM)	level (log10) ([3]; 6700 nM)	level (log10) ([3]; 20000 nM)	level (log10) ([4]; 6700 nM)	level (log10) ([4]; 20000 nM)	level (log10) ([4]; 60000 nM)	level (log10) ([5]; 1500 nM)	level (log10) ([5]; 4400 nM)	level (log10) ([5]; 13000 nM)	level (log10) ([5]; 40000 nM)	level (log10) [6]	level (log10) ([7]; 6700 nM)	level (log10) ([7]; 20000 nM)
MyoF:Collagen I	-0.031 ± 0.044	-0.031 ± 0.041	0.01 ± 0.028	-0.0495 ± 0.026	-0.0365 ± 0.0021	-0.03 ± 0.0071	-0.017 ± 0.059	-0.101 ± 0.027	0.004 ± 0.0042	-0.0265 ± 0.026	-0.024 ± 0.0071	-0.0035 ± 0.0021	0.0135 ± 0.005	-0.009 ± 0.0085	0.0105 ± 0.011	-0.421 ± 0.0092	-0.0335 ± 0.015	-0.0125 ± 0.0035
MyoF:Collagen III	-0.011 ± 0.038	0.007 ± 0.042	0.0245 ± 0.032	-0.008 ± 0.021	0.0155 ± 0.00071	0.006	-0.004 ± 0.0071	-0.0355 ± 0.018	-0.008 ± 0.017	-0.04 ± 0.031	-0.0355 ± 0.023	-0.0035 ± 0.022	0.002 ± 0.0085	-0.0195 ± 0.013	-0.006 ± 0.025	-0.3895 ± 0.00071	-0.029 ± 0.017	-0.005 ± 0.028
MyoF:Collagen IV	0 ± 0.0057	-0.0095 ± 0.012	0.0285 ± 0.05	0.034 ± 0.054	0.0255 ± 0.037	0.0225 ± 0.025	0.0215 ± 0.022	0.221 ± 0.063	-0.0215 ± 0.019	-0.0335 ± 0.036	0.005 ± 0.0099	0.013 ± 0.018	-0.017 ± 0.0057	-0.012 ± 0.013	0.0025 ± 0.023	0.57 ± 0.013	-0.0265 ± 0.015	-0.027 ± 0.025
MyoF:Decorin	-0.0155 ± 0.066	0.003 ± 0.028	0.0645 ± 0.026	0 ± 0.013	-0.0065 ± 0.013	0.012	0.0125 ± 0.028	0.0545 ± 0.0035	0.0555 ± 0.029	0.024 ± 0.03	-0.001 ± 0.0014	-0.0075 ± 0.015	-0.006 ± 0.0042	0.009 ± 0.0014	0.0615 ± 0.011	-0.026 ± 0.035	-0.0145 ± 0.0021	-0.004 ± 0.0057
MyoF:MMP-1	-0.0345 ± 0.04	-0.026 ± 0.027	0.0215 ± 0.0064	-0.048 ± 0.0014	-0.0475 ± 0.012	-0.03 ± 0.027	-0.025 ± 0.031	0.0665 ± 0.0021	-0.0245 ± 0.043	-0.0365 ± 0.028	0.0175 ± 0.005	0.0105 ± 0.039	-0.0055 ± 0.015	-0.03 ± 0.0085	0.01 ± 0.044	-0.036 ± 0.018	-0.015 ± 0.02	-0.0075 ± 0.0021
